Measurements: patent publication US20240067603A1, “CUBANYL BIGUANIDE COMPOUNDS” (REGENTS OF THE UNIVERSITY OF MINNESOTA, priority 2020, published 2024)

Columns and labels:
T47D = assay: Inhibition of mammary carcinoma cell line T47D; format: cell-based; details: Table 5, human, ERα+, HER2−
Experimental: 3-(4,5-Dimethylthiazol-2-yl)-2,5-diphenyltetrazolium Bromide (MTT) Cell Proliferation Assay. To cells grown in 96-well-tissue culture plate, 20 μl/well of MTT solution (5 mg/ml in PBS) was added. After 1-2 hours incubation at 37° C., the plate was centrifuged. Supernatant was discarded and 100 μl DMSO was added to dissolve water insoluble formazan, and the absorbance was read at 540 nm with a plate reader.

MCF-7 cells = assay: Oxygen consumption rate (OCR), Seahorse XFe, MCF-7; format: cell-based, human
Experimental: FIGS. 3A-3B. Effects of DCB (FIG. 3B) and HCB (FIG. 3A) on MCF-7 cells respiration. MCF-7 cells were seeded at 25,000 cells/well into a 96-well XF96 cell microplate. Growth media was replaced with 150 μL metabolism assay media the next day and cells were incubated CO2 free for 1 hour before the measurement of oxygen consumption rate (OCR) every seven minutes by a Seahorse XFe analyzer. Drugs were injected into the media after the fifth measurement (indicated by time point A and the dashed line). Results are reported as mean of percent of base OCR (OCR of the fifth measurement)±S.D. (n=12 for DMSO and 16 for treatment groups).
Measurement of oxygen consumption rate (OCR). Cells were maintained in growth medium consisting of 10% FBS at 37° C. with 5% CO2 and seeded at 25,000 cells per well in a 96-well XF96 cell culture microplates (Agilent, Santa Clara, CA). An 96 well XF sensor cartridge was hydrated and equilibrated with 200 ul calibrant in each well at 37° C. without CO2 overnight. […] OCRs were measured periodically and can be reported in pmoles/minute or normalized against baseline measurements before treatment.

mm006 = assay: Oxygen consumption rate (OCR), mm006; format: cell-based, mouse (C57BL/6)
Experimental: Measurement of oxygen consumption rate (OCR). Cells were maintained in growth medium consisting of 10% FBS at 37° C. with 5% CO2 and seeded at 25,000 cells per well in a 96-well XF96 cell culture microplates (Agilent, Santa Clara, CA). An 96 well XF sensor cartridge was hydrated and equilibrated with 200 ul calibrant in each well at 37° C. without CO2 overnight. Growth media was replaced with 150 μL DMEM based assay media (a non-buffered medium including 2 mM L-glutamine but no sodium bicarbonate (buffering agent), glucose, or sodium pyruvate, Agilent, Santa Clara, CA) the next day and cells were incubated CO2 free for 1 hour before the measurement of OCR by a Seahorse XFe Extracellular Flux Analyzer (Agilent, Santa Clara, CA), which measures uptake and excretion of metabolic end products in real time. After baseline measurements, 20 μl assay medium containing control vehicle or drugs were injected into corresponding wells. OCRs were measured periodically and can be reported in pmoles/minute or normalized against baseline measurements before treatment.

CYP3A4 = CYP3A4 (Homo sapiens, UniProt P08684); assay: CYP3A4 binding by Soret band spin shift analysis; details: FIG. 16, read-out: estimated Kd
Chain of CYP3A4 (P08684 with tags, fused parts or gaps): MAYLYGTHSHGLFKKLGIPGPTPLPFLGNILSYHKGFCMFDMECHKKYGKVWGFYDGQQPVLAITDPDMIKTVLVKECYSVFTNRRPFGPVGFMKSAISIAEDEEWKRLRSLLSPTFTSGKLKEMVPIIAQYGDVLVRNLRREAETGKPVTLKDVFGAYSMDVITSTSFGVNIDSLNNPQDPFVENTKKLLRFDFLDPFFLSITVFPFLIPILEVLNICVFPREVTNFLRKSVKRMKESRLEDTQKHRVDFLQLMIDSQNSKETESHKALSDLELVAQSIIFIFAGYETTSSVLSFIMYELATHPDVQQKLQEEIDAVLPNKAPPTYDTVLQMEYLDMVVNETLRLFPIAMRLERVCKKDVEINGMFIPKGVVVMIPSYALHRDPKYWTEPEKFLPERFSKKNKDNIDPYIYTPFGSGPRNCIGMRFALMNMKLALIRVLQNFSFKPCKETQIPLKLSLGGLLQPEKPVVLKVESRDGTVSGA
Experimental: HCB induces a low-to-high spin transition in 3A4, meaning that it binds within the active site near the heme (FIG. 16).
A. HBB binds soluble CYP3A4 Δ3-22, dependent on the heme iron. The HBB binding spectrum is shown in red. Control spectra with dithionite reduction (blue) and CO adduct formation (green) are shown as well as untreated CYP3A4 Δ3-22 (black). B. HBB docked to truncated CYP3A4 Δ3-22 induces a low to high spin shift (left) with a Ks=74±7 μM (right). (FIG. 16)

| SMILES | IC50 (T47D) [µM] | effect on oxidative phosphorylation (OCR) (MCF-7 cells; 10 μM, MCF-7 cells, FIGS. 3A-3B) | OCR Inhibition [HCB] (uM) v vs. control (P < 0.05) (MCF-7 cells; MCF-7) [µM] | OCR Inhibition [HCB] (uM) v vs. control (P < 0.05) (mm006) [µM] | Kd (CYP3A4) [µM] |
| --- | --- | --- | --- | --- | --- |
| CCCCCCNC(=N)NC(=N)NCc1ccccc1 [HBB, N1-hexyl-N5-benzyl-biguanide] | 22 |  |  |  |  |
| CCCCCCNC(=N)NC(=N)NCC12C3C4C5C3C1C5C42 (centres unmarked) [HCB, Hexyl Cubanomethyl Biguanide] |  | inhibited oxidative phosphorylation | 10 | 20 | 74 |
